Where only a bound is given, the exact number is not on record here.

From US8309319B2, “Fluorescent probe for measurement of UDP-glucuronosyltransferase” (The University of Tokyo, priority 2007, dated 2012) come the findings set out here.

Experiment [1] has as its target T1, UGT1A1 (Homo sapiens, UniProt P22309).
T1 sequence (P22309 26-533): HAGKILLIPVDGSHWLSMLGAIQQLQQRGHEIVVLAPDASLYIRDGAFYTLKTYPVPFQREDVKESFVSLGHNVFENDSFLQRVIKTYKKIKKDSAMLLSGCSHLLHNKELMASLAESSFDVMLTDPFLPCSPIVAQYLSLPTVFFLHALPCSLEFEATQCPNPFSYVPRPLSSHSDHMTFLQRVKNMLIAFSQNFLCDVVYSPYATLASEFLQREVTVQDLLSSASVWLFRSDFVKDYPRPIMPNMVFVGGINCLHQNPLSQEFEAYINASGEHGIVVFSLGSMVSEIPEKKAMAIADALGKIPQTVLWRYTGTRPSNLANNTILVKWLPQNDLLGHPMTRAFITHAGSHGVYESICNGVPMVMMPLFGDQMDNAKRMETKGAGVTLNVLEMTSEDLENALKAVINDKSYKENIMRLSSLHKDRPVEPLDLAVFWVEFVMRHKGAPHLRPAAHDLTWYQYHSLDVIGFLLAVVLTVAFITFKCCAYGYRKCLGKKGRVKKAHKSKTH
In words: Reactivity of fluorescence increasing (d-PeT) type probes with UGT1A1. The experiment is classed as biochemical. Further details: host or cells: microsomes expressing UGT1A1. Conditions: FIG. 4. As to the method:
The fluorescein derivatives of fluorescence decreasing type, of which fluorescence is decreased by a reaction with UGT, were obtained in Examples 1 and 2. Further researches were conducted in order to provide fluorescein derivatives of fluorescence increasing type of which fluorescence is increased by a reaction with UGT. Functionally, the structure of fluorescein can be recognized as two parts having different functions, i.e. the benzene ring moiety and the xanthene ring moiety. By appropriately choosing substituents on the benzene ring moiety among them, fluorescence thereof can be controlled by using PeT (J. Am. Chem. Soc., 123, pp. 2530-2536, 2001). […] Therefore, it is considered that there can be developed a fluorescence increasing type fluorescein derivative of which fluorescence is quenched by PeT before the reaction with UGT when the fluorescein derivative is a phenolate type, and fluorescence is emitted after the reaction with UGT when the fluorescein derivative is an O-glycoside type, by appropriately choosing the substituents on the benzene ring moiety (J. Am. Chem. Soc., 126, pp. 14079-14085, 2004). From such a point of view, 6-carboxyfluorescein dimethyl ester and 5,6-dicarboxyfluorescein trimethyl ester were designed as fluorescence increasing (d-PeT) type fluorescein derivatives, and reactivity thereof with UGT1A1 was confirmed.

In experiment [2] the target is T1, UGT1A1. In words: Reactivity with UGT1A1, fluorescence method (decrease in fluorescence intensity). As to conditions: 37° C.
Experiment [3] addresses T1, UGT1A1. The experiment is described as follows: Reactivity with UGT1A1, absorbance method (decrease of absorbance). The experiment is classed as biochemical. Further details: host or cells: microsomes expressing UGT1A1. Conditions: probe 10 μM, absorbance at 480 to 510 nm; compared with 2-Me-4-OMe-TG.
Setting [4] is: probe 1 μM, excitation 480 to 510 nm.

For `COC(=O)c1cc(C(=O)OC)c(-c2c3ccc(=O)cc-3oc3cc(O)ccc23)cc1C(=O)OC` [5,6-dicarboxyfluorescein trimethyl ester], the “change of fluorescence intensity with passage of the reaction time” value on UGT1A1 [1] is “increase of fluorescence intensity was observed”.
For `COC(=O)c1ccc(C(=O)OC)c(-c2c3ccc(=O)cc-3oc3cc(O)ccc23)c1` [6-carboxyfluorescein dimethyl ester], the “change of fluorescence intensity with passage of the reaction time” value on UGT1A1 [1] is on record as “increase of fluorescence intensity was observed”.
For the compound `Nc1ccccc1-c1c2ccc(=O)cc-2oc2cc(O)ccc12` [Derivative 6], at UGT1A1 [2] (UGT1A1 microsomes 0.1 mg/mL, UDP-glucuronic acid 2 mM, probe 1 μM (fluorescence) or 10 μM (absorbance)), the “reactivity with UGT1A1” value is “weak”.
For the compound `COc1ccc(-c2c3ccc(=O)cc-3oc3cc(O)ccc23)c(C)c1` [Derivative 11], on UGT1A1 [2] (setting [4]), the “decrease of fluorescence intensity to” value is reported as at most 0.1% and the “decrease rate of fluorescence” value was “high decrease rate of fluorescence”.
Turning to `Cc1ccc(-c2c3ccc(=O)cc-3oc3cc(O)ccc23)c([N+](=O)[O-])c1` [Derivative 15], at UGT1A1 [3], the “decrease rate of absorbance” value is “higher decrease rate of absorbance”.
